According to ChEMBL document CHEMBL1156432, “Structure and regulation of the human Nek2 centrosomal kinase” (J Biol Chem, 2007):

B1: Serine/threonine-protein kinase Nek2 (Homo sapiens), P51955 T175A (protein)
chain: MPSRAEDYEVLYTIGTGSYGRCQKIRRKSDGKILVWKELDYGSMTEAEKQMLVSEVNLLRELKHPNIVRYYDRIIDRTNTTLYIVMEYCEGGDLASVITKGTKERQYLDEEFVLRVMTQLTLALKECHRRSDGGHTVLHRDLKPANVFLDGKQNVKLGDFGLARILNHDTSFAKAFVGTPYYMSPEQMNRMSYNEKSDIWSLGCLLYELCALMPPFTAFSQKELAGKIREGKFRRIPYRYSDELNEIITRMLNLKDYHRPSVEEILENPLIADLVADEQRRNLERRGRQLGEPEKSQDSSPVLSELKLKEIQLQERERALKAREERLEQKEQELCVRERLAEDKLARAENLLKNYSLLKERKFLSLASNPELLNLPSSVIKKKVHFSGESKENIMRSENSESQLTSKSKCKDLKKRLHAAQLRAQALSDIEKNYQLKSRQILGMR

How the values were obtained:
[1] = target: Platelet-derived growth factor receptor beta (Homo sapiens, UniProt P09619); test: Inhibition of PDGFRbeta
[2] = target: Vascular endothelial growth factor receptor 2 (Homo sapiens, UniProt P35968); test: Inhibition of VEGFR2
[3] = target: Epidermal growth factor receptor (Homo sapiens, UniProt P00533); test: Inhibition of EGFR
[4] = target: Serine/threonine-protein kinase Nek2 (Homo sapiens, UniProt P51955, T175A); test: Inhibition of human recombinant Nek2 T175A mutant by coupled pyruvate kinase/lactate dehydrogenase assay
[5] = substrate: CC[C@H](C)[C@H](NC(=O)[C@H](CO)NC(=O)[C@H](CO)NC(=O)[C@H](CCCNC(=N)N)NC(=O)[C@H](Cc1ccccc1)NC(=O)[C@@H](NC(=O)CN)[C@@H](C)O)C(=O)N[C@@H](CCCNC(=N)N)C(=O)N[C@@H](CCCNC(=N)N)C(=O)N[C@@H](CC(C)C)C(=O)N[C@@H](CO)C(=O)N[C@H](C(=O)N[C@@H](CCCNC(=N)N)C(=O)N[C@@H](CCCNC(=N)N)C(=O)N[C@@H](CCCNC(=N)N)C(=O)N[C@@H](Cc1ccc(O)cc1)C(=O)O)[C@@H](C)O; test: Activity of human recombinant Nek2 T175A mutant assessed as substrate phosphorylation

Chain of Vascular endothelial growth factor receptor 2 (P35968 whole entry): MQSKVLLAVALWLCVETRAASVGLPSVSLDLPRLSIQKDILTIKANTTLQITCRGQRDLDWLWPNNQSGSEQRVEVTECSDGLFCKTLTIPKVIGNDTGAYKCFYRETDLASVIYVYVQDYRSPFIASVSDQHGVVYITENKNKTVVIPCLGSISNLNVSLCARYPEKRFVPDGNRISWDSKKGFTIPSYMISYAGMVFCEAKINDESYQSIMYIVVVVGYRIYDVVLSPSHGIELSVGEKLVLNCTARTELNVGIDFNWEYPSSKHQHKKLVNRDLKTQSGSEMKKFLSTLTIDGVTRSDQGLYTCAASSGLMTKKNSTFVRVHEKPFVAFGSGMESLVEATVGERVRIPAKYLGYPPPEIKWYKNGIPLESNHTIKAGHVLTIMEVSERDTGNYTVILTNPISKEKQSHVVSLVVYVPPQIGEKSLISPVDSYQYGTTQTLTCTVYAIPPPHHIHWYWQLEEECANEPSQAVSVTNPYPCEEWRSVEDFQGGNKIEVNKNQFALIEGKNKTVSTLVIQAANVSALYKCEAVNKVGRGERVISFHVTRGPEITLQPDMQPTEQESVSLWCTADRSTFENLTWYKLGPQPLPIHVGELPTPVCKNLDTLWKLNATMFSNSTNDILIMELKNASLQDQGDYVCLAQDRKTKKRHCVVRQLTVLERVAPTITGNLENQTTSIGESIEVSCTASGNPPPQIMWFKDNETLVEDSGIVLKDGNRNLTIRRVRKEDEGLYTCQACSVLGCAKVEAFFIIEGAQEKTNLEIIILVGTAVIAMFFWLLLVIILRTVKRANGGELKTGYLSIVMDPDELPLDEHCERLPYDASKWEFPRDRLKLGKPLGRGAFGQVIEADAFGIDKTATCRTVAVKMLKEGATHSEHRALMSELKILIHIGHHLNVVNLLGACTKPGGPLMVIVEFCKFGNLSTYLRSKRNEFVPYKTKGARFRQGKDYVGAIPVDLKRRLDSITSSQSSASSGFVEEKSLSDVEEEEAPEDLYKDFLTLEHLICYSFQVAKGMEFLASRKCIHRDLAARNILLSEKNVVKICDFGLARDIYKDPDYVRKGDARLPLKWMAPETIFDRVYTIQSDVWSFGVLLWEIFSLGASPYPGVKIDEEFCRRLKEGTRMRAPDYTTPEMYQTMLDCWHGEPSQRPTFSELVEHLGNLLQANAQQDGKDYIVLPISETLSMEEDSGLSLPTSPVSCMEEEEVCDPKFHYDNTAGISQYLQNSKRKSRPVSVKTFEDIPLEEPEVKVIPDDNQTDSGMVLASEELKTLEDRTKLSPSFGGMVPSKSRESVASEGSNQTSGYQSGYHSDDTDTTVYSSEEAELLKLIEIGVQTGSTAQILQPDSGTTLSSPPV
Chain of Platelet-derived growth factor receptor beta (P09619 whole entry): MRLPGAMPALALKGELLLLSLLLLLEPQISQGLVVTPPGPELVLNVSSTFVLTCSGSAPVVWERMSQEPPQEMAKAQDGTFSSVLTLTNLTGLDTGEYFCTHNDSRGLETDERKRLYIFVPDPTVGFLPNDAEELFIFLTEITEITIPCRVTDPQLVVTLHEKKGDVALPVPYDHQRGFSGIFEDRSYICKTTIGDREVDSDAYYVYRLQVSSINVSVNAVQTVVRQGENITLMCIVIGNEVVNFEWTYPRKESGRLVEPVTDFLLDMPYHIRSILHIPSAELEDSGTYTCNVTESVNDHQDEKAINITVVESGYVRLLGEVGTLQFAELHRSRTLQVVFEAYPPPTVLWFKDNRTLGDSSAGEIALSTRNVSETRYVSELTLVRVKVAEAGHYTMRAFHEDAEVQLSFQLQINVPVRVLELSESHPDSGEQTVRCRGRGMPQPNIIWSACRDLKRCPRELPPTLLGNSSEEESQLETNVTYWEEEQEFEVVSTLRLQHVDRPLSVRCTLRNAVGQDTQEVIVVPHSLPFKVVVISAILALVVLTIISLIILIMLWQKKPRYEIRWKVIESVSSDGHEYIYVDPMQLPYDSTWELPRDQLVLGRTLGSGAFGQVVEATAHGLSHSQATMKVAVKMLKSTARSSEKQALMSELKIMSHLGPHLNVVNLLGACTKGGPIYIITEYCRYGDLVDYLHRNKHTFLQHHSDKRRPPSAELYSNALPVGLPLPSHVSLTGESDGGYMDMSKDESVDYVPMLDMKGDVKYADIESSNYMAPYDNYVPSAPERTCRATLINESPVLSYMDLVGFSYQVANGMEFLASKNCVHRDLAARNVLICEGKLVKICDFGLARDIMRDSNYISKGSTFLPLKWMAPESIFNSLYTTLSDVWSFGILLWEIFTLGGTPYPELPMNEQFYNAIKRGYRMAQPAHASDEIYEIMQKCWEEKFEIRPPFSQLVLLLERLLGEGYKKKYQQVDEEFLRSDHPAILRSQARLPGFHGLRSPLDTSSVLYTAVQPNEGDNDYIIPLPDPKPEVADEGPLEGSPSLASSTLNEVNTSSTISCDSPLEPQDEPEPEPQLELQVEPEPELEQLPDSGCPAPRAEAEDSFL
Chain of Epidermal growth factor receptor (P00533 whole entry): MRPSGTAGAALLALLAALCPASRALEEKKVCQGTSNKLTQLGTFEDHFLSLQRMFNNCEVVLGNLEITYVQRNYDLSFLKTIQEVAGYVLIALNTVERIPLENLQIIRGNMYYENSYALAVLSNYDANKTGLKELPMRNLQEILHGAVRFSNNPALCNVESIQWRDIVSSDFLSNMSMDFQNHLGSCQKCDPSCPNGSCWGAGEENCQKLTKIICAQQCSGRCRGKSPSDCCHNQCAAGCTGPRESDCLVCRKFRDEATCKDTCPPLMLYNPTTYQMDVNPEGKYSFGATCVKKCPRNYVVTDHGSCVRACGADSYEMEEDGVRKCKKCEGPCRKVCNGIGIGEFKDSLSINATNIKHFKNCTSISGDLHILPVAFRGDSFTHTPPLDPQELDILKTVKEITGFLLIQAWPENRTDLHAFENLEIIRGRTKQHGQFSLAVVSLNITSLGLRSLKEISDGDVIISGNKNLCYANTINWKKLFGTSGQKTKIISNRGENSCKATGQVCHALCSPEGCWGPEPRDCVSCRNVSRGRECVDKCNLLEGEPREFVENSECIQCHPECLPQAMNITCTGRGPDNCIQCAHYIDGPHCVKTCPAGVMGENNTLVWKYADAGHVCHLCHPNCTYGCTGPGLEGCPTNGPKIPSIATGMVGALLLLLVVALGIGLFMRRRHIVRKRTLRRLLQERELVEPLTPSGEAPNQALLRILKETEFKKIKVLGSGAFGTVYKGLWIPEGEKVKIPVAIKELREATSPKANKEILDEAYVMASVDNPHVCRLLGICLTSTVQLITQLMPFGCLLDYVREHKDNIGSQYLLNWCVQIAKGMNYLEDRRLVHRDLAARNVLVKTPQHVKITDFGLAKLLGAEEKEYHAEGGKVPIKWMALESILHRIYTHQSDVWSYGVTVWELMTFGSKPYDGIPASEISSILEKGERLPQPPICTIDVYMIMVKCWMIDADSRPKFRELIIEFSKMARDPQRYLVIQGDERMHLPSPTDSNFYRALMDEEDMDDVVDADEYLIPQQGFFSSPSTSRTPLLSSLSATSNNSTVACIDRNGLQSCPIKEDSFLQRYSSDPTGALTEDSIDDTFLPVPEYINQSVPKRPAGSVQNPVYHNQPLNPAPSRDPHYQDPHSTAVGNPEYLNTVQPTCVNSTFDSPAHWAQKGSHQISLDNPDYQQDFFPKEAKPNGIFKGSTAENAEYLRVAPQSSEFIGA

Row | Molecule | IC50 [1] | IC50 [2] | IC50 [3] | IC50 [4] | Km [5] | kcat [5]
1 | CCN(CC)CCNC(=O)c1c(C)[nH]c(/C=C2\C(=O)Nc3ccc(Cl)cc32)c1C [SU-11652] | 3 µM | 3 µM | 3 µM | 8 µM | – | –
2 | B1 | – | – | – | – | 90 µM | 0.283 s⁻¹
